Results taken from patent US20220133722A1, “PHARMACEUTICAL COMPOSITIONS” (QUE ONCOLOGY PTY LTD, priority 2019, published 2022).
“And” between values parts separate entries of the source, which are not always exact repeats. Equal values may be shown once. Read-outs that look alike come from different tables or passages of the source.

Assay: Part 2 PK study: 200 mg QD versus 100 mg BID for 10 days under fed conditions
Assay type: in vivo, human
Conditions: fed; for AUC: read-out: AUC0-tau; for Tmax: read-out: Tmax; for half-life: read-out: t½ (converted); for concentration at 10 day: read-out: Cmin; for Vd/F: read-out: Vz/F
Protocol: Part 2 involved analysing the PK parameters obtained following either single (QD) or twice daily (BD) dosing of a compound of formula (Ia) under fed conditions.
Subjects were randomized 1:1 to receive a daily dose of 200 mg administered once daily in the morning (200 mg capsule) or twice daily (100 mg capsules BID) for a total of 10 days. PK blood samples were taken on Day 1 pre-dose and at 0.25, 0.5, 1.0, 1.5, 2, 3, 4, 8, 10, 12 and 16 hours post-dose. On Days 2 to 10, PK blood samples were taken once pre-dose, and on Days 11 to 14, at 24, 36, 48, 60, 72 and 96 hours post-dose.
Subjects selected for participation checked into the clinical unit and were randomized to the dosing regimen receiving their first dose of study drug on the morning of Day 1 followed by PK and safety assessments through the morning of Day 2 (24 hours post-dose). Subjects on a BID regimen received their second dose of study drug approximately 12 hours after the first dose. Subjects remained confined in the clinic for dosing BID or QD through the last dose of study drug on the morning of Day 10. PK samples were collected through 96 hrs post-dose. Subjects were discharged from the clinic following collection of the 72 hr PK sample, returning to the clinic on the morning of Day 14 for the 96 hr sample collection.
For both Parts 1 and 2, samples were processed and analysed as follows. The method extracted Q-122 and the Internal Standard (IS, Q-122 ^13C4) from human plasma using protein precipitation extraction.
The analytes were separated by HPLC on a Phenomenex Synergi Polar-RP column, and the eluates monitored by an API4000 MS/MS detector in positive MRM mode. The extract was then assayed against a calibration curve. The data were acquired and processed by the data acquisition system Analyst® (Sciex) linked directly to the API4000 MS/MS detector and then processed in Watson LIMS™ (Thermo Scientific), where applicable. The method range is from 10.0 to 2500 ng/mL using 50 μL of matrix and has a run time of approximately 3.2 minutes per sample.
Plasma PK parameters for each dosing regimen and dose level were calculated from the concentrations of Q-122 and its major metabolites measured in pre-dose and post-dose plasma samples. For each dose level, descriptive statistics (sample size, arithmetic means, geometric means, standard deviation, % coefficient of variation, minimum, median, and maximum) are presented.
The pharmacokinetic results were processed according to standard non-compartmental analytical procedures. The software used was Phoenix™ WinNonlin® v 6.4 (Pharsight Corporation, USA) and Microsoft® Excel® 2010 (Microsoft Corporation). The following PK parameters were estimated from plasma data.

[1] = 200 mg QD, Day 10, individual subjects
[2] = human, plasma, oral, 100 mg, 100 mg BID, Day 1, individual subjects
[3] = human, plasma, oral, 100 mg, 100 mg BID, Day 1, mean
[4] = human, plasma, oral, 100 mg, 100 mg BID, Day 1, median
[5] = human, plasma, oral, 100 mg, 100 mg BID, Day 10, individual subjects
[6] = human, plasma, oral, 100 mg, 100 mg BID, Day 10, mean
[7] = human, plasma, oral, 100 mg, 100 mg BID, Day 10, median
[8] = human, plasma, oral, 200 mg, 200 mg QD, Day 1, mean
[9] = human, plasma, oral, 200 mg, 200 mg QD, Day 1, median
[10] = human, plasma, oral, 200 mg, 200 mg QD, Day 10, mean
[11] = human, plasma, oral, 200 mg, 200 mg QD, Day 10, median

In the case of `c1cnc(NCc2ccc(CNc3ncccn3)cc2)nc1` [Q-122], the “% AUCexp” value [1] is reported as 2.32% and 3.36% and 2.33% and 7.19% and 10.70% and 1.77%, the AUC0-last [1] is reported as 12003 ng·h/mL and 11557 ng·h/mL and 9531 ng·h/mL and 14024 ng·h/mL and 6077 ng·h/mL and 10643 ng·h/mL and the AUC0-tau [1] is reported as 10424 ng·h/mL and 9904 ng·h/mL and 8868 ng·h/mL and 11036 ng·h/mL and 3134 ng·h/mL and 9758 ng·h/mL. The AUCinf [1] was 12287 ng·h/mL and 11959 ng·h/mL and 9759 ng·h/mL and 15111 ng·h/mL and 6805 ng·h/mL and 10834 ng·h/mL, the “Accum Index” value [1] was 1.44 and 1.78 and 1.34 and 2.88 and 2.25 and 1.22 and the CLss/F [1] was 19.19 L/h and 20.19 L/h and 22.55 L/h and 18.12 L/h and 63.82 L/h and 20.50 L/h. The Cavg [1] was 434.33 ng/mL and 412.65 ng/mL and 369.52 ng/mL and 459.84 ng/mL and 130.57 ng/mL and 406.57 ng/mL, the Cmax [1] was 1450.00 ng/mL and 1730.00 ng/mL and 1430.00 ng/mL and 1320.00 ng/mL and 245.00 ng/mL and 1470.00 ng/mL and the Cmin [1] was 74.10 ng/mL and 73.50 ng/mL and 52.20 ng/mL and 93.90 ng/mL and 68.20 ng/mL and 77.70 ng/mL. For the same compound, the Fluct [1] was 316.79% and 401.43% and 372.87% and 266.63% and 135.41% and 342.45%, the Tlast [1] was 60.00 h and 72.00 h and 48.00 h (2×) and 96.00 h (2×) and the t½ [1] was 13.99 h and 20.21 h and 12.03 h and 39.04 h and 28.35 h and 9.63 h. For the same compound, the “% AUCexp” value (200 mg QD, Day 10, max) was 10.70%, the AUC0-last (200 mg QD, Day 10, max) was 14024 ng·h/mL and the AUC0-tau (200 mg QD, Day 10, max) was 11036 ng·h/mL. The AUCinf (200 mg QD, Day 10, max) was 15111 ng·h/mL, the “Accum Index” value (200 mg QD, Day 10, max) was 2.88 and the CLss/F (200 mg QD, Day 10, max) was 63.82 L/h. The Cavg (200 mg QD, Day 10, max) was 459.84 ng/mL, the Cmax (200 mg QD, Day 10, max) was 1730.00 ng/mL and the Cmin (200 mg QD, Day 10, max) was 93.90 ng/mL. It also gave a Fluct (200 mg QD, Day 10, max) of 401.43%, a Tlast (200 mg QD, Day 10, max) of 96.00 h and a t½ (200 mg QD, Day 10, max) of 39.04 h. For the same compound, the “% AUCexp” value (200 mg QD, Day 10, mean) was 4.612%, the CLss/F (200 mg QD, Day 10, mean) was 27.396 L/h and the Cavg (200 mg QD, Day 10, mean) was 368.913 ng/mL. It also gave a Cmin (200 mg QD, Day 10, mean) of 73.267 ng/mL, a Fluct (200 mg QD, Day 10, mean) of 305.929% and a Tlast (200 mg QD, Day 10, mean) of 70.000 h. For the same compound, the “% AUCexp” value (200 mg QD, Day 10, median) was 2.85%, the “Accum Index” value (200 mg QD, Day 10, median) was 1.61 and the CLss/F (200 mg QD, Day 10, median) was 20.35 L/h. For the same compound, the Cavg (200 mg QD, Day 10, median) was 409.61 ng/mL, the Cmin (200 mg QD, Day 10, median) was 73.80 ng/mL and the Fluct (200 mg QD, Day 10, median) was 329.62%. The Tlast (200 mg QD, Day 10, median) was 66.00 h, the “% AUCexp” value (200 mg QD, Day 10, min) was 1.77% and the AUC0-last (200 mg QD, Day 10, min) was 6077 ng·h/mL. For the same compound, the AUC0-tau (200 mg QD, Day 10, min) was 3134 ng·h/mL, the AUCinf (200 mg QD, Day 10, min) was 6805 ng·h/mL and the “Accum Index” value (200 mg QD, Day 10, min) was 1.22. It also gave a CLss/F (200 mg QD, Day 10, min) of 18.12 L/h, a Cavg (200 mg QD, Day 10, min) of 130.57 ng/mL and a Cmax (200 mg QD, Day 10, min) of 245.00 ng/mL. The Cmin (200 mg QD, Day 10, min) was 52.20 ng/mL, the Fluct (200 mg QD, Day 10, min) was 135.41% and the Tlast (200 mg QD, Day 10, min) was 48.00 h. For the same compound, the t½ (200 mg QD, Day 10, min) was 9.63 h, the AUC(0-t) [2] was 8170 ng·h/mL and the AUC [2] was 2800 ng·h/mL. It also gave an AUC(0-t) [3] of 6630 ng·h/mL, an AUC [3] of 3590 ng·h/mL and a Cmax (human, plasma, oral, 100 mg, 100 mg BID, Day 1, mean, read-out: Cmax) of 730 ng/mL. The Tmax [3] was 2.25 h, the half-life [3] was 5.49 h and the AUC(0-t) [4] was 6640 ng·h/mL. It also gave an AUC [4] of 3690 ng·h/mL, a Cmax (human, plasma, oral, 100 mg, 100 mg BID, Day 1, median, read-out: Cmax) of 809 ng/mL and a Tmax [4] of 2 h. For the same compound, the half-life [4] was 5.1 h, the AUC(0-inf) [5] was 9020 ng·h/mL and the AUC(0-t) [5] was 8810 ng·h/mL. It also gave an AUC [5] of 7000 ng·h/mL, a Cmax (human, plasma, oral, 100 mg, 100 mg BID, Day 10, individual subjects, read-out: Cmax) of 1300 ng/mL and a Tmax [5] of 2 h. It also gave an AUC(0-inf) [6] of 7270 ng·h/mL, an AUC(0-t) [6] of 6950 ng·h/mL and an AUC [6] of 5440 ng·h/mL. For the same compound, the Cmax (human, plasma, oral, 100 mg, 100 mg BID, Day 10, mean, read-out: Cmax) was 1020 ng/mL, the concentration at 10 day [6] was 146 ng/mL and the Tmax [6] was 1.75 h. The Vd/F [6] was 370 L, the half-life [6] was 11.8 h and the AUC(0-inf) [7] was 7310 ng·h/mL. For the same compound, the AUC(0-t) [7] was 7040 ng·h/mL, the AUC [7] was 5760 ng·h/mL and the Cmax (human, plasma, oral, 100 mg, 100 mg BID, Day 10, median, read-out: Cmax) was 1060 ng/mL. It also gave a Tmax [7] of 2 h, a Vd/F [7] of 210 L and a half-life [7] of 8.2 h. It also gave a Tmax (human, plasma, oral, 200 mg, 200 mg QD, Day 1, individual subjects) of 3 h, an AUC(0-t) [8] of 8060 ng·h/mL and an AUC [8] of 8060 ng·h/mL. It also gave a Cmax (human, plasma, oral, 200 mg, 200 mg QD, Day 1, mean, read-out: Cmax) of 1350 ng/mL, a Tmax [8] of 3.17 h and a half-life [8] of 8.64 h. For the same compound, the AUC(0-t) [9] was 7790 ng·h/mL, the AUC [9] was 7790 ng·h/mL and the Cmax (human, plasma, oral, 200 mg, 200 mg QD, Day 1, median, read-out: Cmax) was 1560 ng/mL. The Tmax [9] was 3 h, the half-life [9] was 7.7 h and the Tmax (human, plasma, oral, 200 mg, 200 mg QD, Day 10, individual subjects) was 4 h. The AUC(0-inf) [10] was 11100 ng·h/mL, the AUC(0-t) [10] was 10600 ng·h/mL and the AUC [10] was 8850 ng·h/mL. The Cmax (human, plasma, oral, 200 mg, 200 mg QD, Day 10, mean, read-out: Cmax) was 1270 ng/mL, the concentration at 10 day [10] was 73 ng/mL and the Tmax [10] was 3.33 h. The Vd/F [10] was 881 L, the half-life [10] was 20.5 h and the AUC(0-inf) [11] was 11400 ng·h/mL. For the same compound, the AUC(0-t) [11] was 11100 ng·h/mL, the AUC [11] was 9830 ng·h/mL and the Cmax (human, plasma, oral, 200 mg, 200 mg QD, Day 10, median, read-out: Cmax) was 1440 ng/mL. It also gave a Tmax [11] of 3.5 h, a Vd/F [11] of 490 L and a half-life [11] of 17.1 h.
